Experimental data: patent publication US20250002493A1, “PYRIDONE COMPOUND AND PREPARATION METHOD THEREFOR, PHARMACEUTICAL COMPOSITION AND USE” (NANJING CHINA-AUSTRALIA INSTITUTE OF TRANSLATIONAL MEDICINE …, priority 2022, published 2025)
pIC50, pKi: −log10 of the molar value.

Key:
[1] = target: BIR3 domain of human cIAP1 (residues 255-364) (Homo sapiens (Human), UniProt Q13490); assay: Fluorescence polarization competitive binding to cIAP1 BIR3; conditions: FP, peptide probe 5 nM, cIAP1 BIR3 5 nM, 1 hour room temperature
Sequence of BIR3 domain of human cIAP1 (residues 255-364) (Q13490 255-364): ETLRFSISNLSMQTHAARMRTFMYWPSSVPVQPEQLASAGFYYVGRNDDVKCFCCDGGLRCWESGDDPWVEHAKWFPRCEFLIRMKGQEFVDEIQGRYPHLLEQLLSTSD
Experimental: (§1) The binding affinity of the compounds provided by the present invention to IAP proteins was determined using a fluorescence polarization method (Nikolovska-Colesak et al, Anal. Biochem. 2004, 332:261-73). The recombinant BIR3 domains of human XIAP (residues 238-358), human cIAP1 (residues 255-364) and human cIAP2 (residues 236-342) fusing GST-tags were expressed in E. coli and purified using glutathione agarose 4B affinity chromatography and gel filtration chromatography. A 5-Fam fluorescently modified peptide probe (AbuRPFK(5-Fam)-NH2) was used to test the competitive binding ability of the compounds to the BIR3 domains of XIAP, cIAP1 and cIAP2. The peptide probe (5 nM), XIAP BIR3 (30 nM) or cIAP1 BIR3 (5 nM) or cIAP2 BIR3 (10 nM), and serial diluted compounds were mixed in a test buffer (100 mM potassium phosphate pH 7.5, 100 μg/ml bovine gamma globulin, 0.02% sodium azide, and 1 mM DTT). After incubating the samples at room temperature for 1 hour, the fluorescence polarization values were read using a Tecan microplate reader (FP excitation wavelength 485 nm, […] wavelength 530 nm). The IC50 value was obtained by fitting the curve using nonlinear least square regression with the Graphpad Prism software. The inhibition constant Ki, values were calculated using the Equation Ki, [I]50/([L]50/Kd+[P]0/Kd+1).

[2] = target: BIR3 domain of human cIAP2 (residues 236-342) (Homo sapiens (Human), UniProt Q13489); assay: Fluorescence polarization competitive binding to cIAP2 BIR3; conditions: FP, peptide probe 5 nM, cIAP2 BIR3 10 nM, 1 hour room temperature
Sequence of BIR3 domain of human cIAP2 (residues 236-342) (Q13489 236-342): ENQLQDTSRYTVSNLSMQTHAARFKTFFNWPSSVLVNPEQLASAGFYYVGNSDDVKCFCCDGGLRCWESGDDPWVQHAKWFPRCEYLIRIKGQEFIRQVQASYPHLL
Experimental: as §1

[3] = target: BIR3 domain of human XIAP (residues 238-358) (Homo sapiens (Human), UniProt P98170); assay: Fluorescence polarization competitive binding to XIAP BIR3; conditions: FP, peptide probe 5 nM, XIAP BIR3 30 nM, 1 hour room temperature
Sequence of BIR3 domain of human XIAP (residues 238-358) (P98170 238-358): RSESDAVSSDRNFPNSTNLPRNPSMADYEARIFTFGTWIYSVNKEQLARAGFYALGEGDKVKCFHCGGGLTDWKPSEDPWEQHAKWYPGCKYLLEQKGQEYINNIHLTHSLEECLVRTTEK
Experimental: as §1

[4] = system: MDA-MB-231 human breast cancer cells; assay: WST-8 cell proliferation assay, MDA-MB-231; format: cell-based; conditions: 72 hours
Experimental: (§2) The effects of the compounds provided by the present invention on the proliferation of different cancer cell lines were tested using the WST-8 assay kit. This method is based on the reduction of WST-8 by dehydrogenase in live cells to form a highly water-soluble yellow Formazan dye. Cells were seeded in a 96-well plate and cultured with the test compounds at 37° C. under 5% CO2 for 72 hours. Afterwards, 10% (v/v) WST-8 was added, and the samples were incubated for an additional 2-3 hours. The absorbance of the samples was measured at 450 nm using a Tecan microplate reader, and the concentration of the compound that inhibited 50% of cell proliferation (IC50, nM) was calculated. The activity of the compounds provided by the present invention was determined in three cancer cell lines: MDA-MB-231 human breast cancer cells, SK-OV-3 human ovarian cancer cells, and PANC1 human pancreatic cancer.

[5] = system: SK-OV-3 human ovarian cancer cells; assay: WST-8 cell proliferation assay, SK-OV-3; format: cell-based; conditions: 72 hours, read-out: SKOV-3 IC50
Experimental: as §2

[6] = system: PANC1 human pancreatic cancer; assay: WST-8 cell proliferation assay, PANC1; format: cell-based; conditions: PANC-1, 72 hours
Experimental: as §2

[7] = system: MDA-MB-231 cancer cells; assay: Inhibitor-induced apoptosis, flow cytometry with Annexin V and propidium iodide; format: cell-based, human; conditions: 3 hours
Experimental: After treating the cells with 10 nM and 100 nM concentrations of the compounds for 3 hours, the induction of apoptosis was analyzed using flow cytometry with Annexin V and propidium iodide staining.

pKi [1]: 9.15 | pKi [2]: 8.77 | pKi [3]: 7.50 | pIC50 [4]: 8.30 | pIC50 [5]: 8.40 | pIC50 [6]: 7.42
Structure (SMILES): CN[C@@H](C)C(=O)N[C@H](C(=O)N1CCc2cc(=O)n(Cc3ccc(F)cc3)cc21)C(C)(C)C [Compound I-2-11]
Proportion of apoptotic cells ([7]; Drug concentration 10 nM): 35% | Proportion of apoptotic cells ([7]; Drug concentration 100 nM): 48%
